Test results published in patent US10351546B2, “Pyridin-3-yl acetic acid derivatives as inhibitors of human immunodeficiency virus replication” (priority 2015, dated 2019).

What follows are molecules tested on NL-RLuc virus (assay: Inhibition of HIV replication (NL-RLuc luciferase reporter virus in MT-2 cells)). Settings: Human immunodeficiency virus 1, MT2, 120 h, read-out: Activity.
Format: cell-based
Excerpt: Inhibition of HIV replication: A recombinant NL-RLuc proviral clone was constructed in which a section of the nef gene form NL4-3 was replaced with the Renilla Luciferase gene. This virus is fully infectious and can undergo multiple cycles of replication in cell culture. In addition, the luciferous reporter provides a simple and easy method for quantitating the extent of virus growth and consequently, the antiviral activity of test compounds. The plasmid pNLRLuc contains the proviral NL-Rluc DNA cloned into pUC18 at the PvuII site. The NL-RLuc virus was prepared by transfection of 293T cells with the plasmid pNLRLuc. Transfections were performed using the LipofectAMINE PLUS kit form Invitrogen (Carlsbad, Calif.) according to the manufacturer and the virus generated was titered in MT-2 cells. For susceptibility analyses, the titrated virus was used to infect MT-2 cells in the presence of compound, and after 5 days of incubation, cells were processed and quantitated for virus growth by the amount of expressed luciferase. Assay media was RPMI 1640 supplemented with 10% heat inactivated fetal bovine serum (FBS), 100 units/ml penicillin G/100 units/ml streptomycin, 10 mM HEPES buffer pH 7.55 and 2 mM L-glutamine. The results form at least 2 experiments were used to calculate the EC50 values. Luciferase was quantitated using the Dual Luciferase kit form Promega (Madison, Wis.). Susceptibility of viruses to compounds was determined by incubation in the presence of serial dilutions of the compound. The 50% effective concentration (EC50) was calculated by using the exponential form of the median effect equation where (Fa)=1/[1+(ED50/drug conc.)^m](Johnson V A, Byington R T. Infectivity Assay. In Techniques in HIV Research. ed. Aldovini A, Walker B D. 71-76. New York: Stockton Press. 1990). Activity equal to A refers to a compound having an EC50≤100 nM, while B and C denote compounds having an EC50 between 100 nM and 1 uM (B) or >1 uM (C).

SMILES	EC50 [µM]
Cc1nc(O)c(-c2ccc(OCCc3ccc(F)cc3)cc2)c(N2CCC(C)(C)CC2)c1[C@H](OC(C)(C)C)C(=O)O (single isomer, unassigned) [Example 50]	< 0.1
COc1nc(C)c([C@H](OC(C)(C)C)C(=O)O)c(N2CCC(C)(C)CC2)c1-c1ccc(OCCc2ccc(F)cc2)cc1 (single isomer, unassigned) [Example 51]	< 0.1
Cc1nc(Cl)c(-c2ccc(OCCc3ccc(F)cc3)cc2)c(N2CCC(C)(C)CC2)c1[C@H](OC(C)(C)C)C(=O)O (single isomer, unassigned) [Example 52]	< 0.1
Cc1cc(F)ccc1CN1CCc2cc(-c3c(C(C)N(C)CC4CCOCC4)nc(C)c([C@H](OC(C)(C)C)C(=O)O)c3N3CCC(C)(C)CC3)ccc2C1 (single isomer, unassigned) [Example 150]	< 0.1
Cc1cc(F)ccc1CN1CCc2cc(-c3c(C(C)O)nc(C)c([C@H](OC(C)(C)C)C(=O)O)c3N3CCC(C)(C)CC3)ccc2C1 (single isomer, unassigned) [Example 152]	< 0.1
Cc1nc(CO)c([C@H](OC(C)(C)C)C(=O)O)c(N2CCC(C)(C)CC2)c1-c1ccc(OCCc2ccc(F)cc2)cc1 [Example 1, (S)-2-(tert-Butoxy)-2-(4-(4,4-dimethylpiperidin-1-yl)-5-(4-(4-fluorophenethoxy)phenyl)-2-(hydroxymethyl)-6-methylpyridin-3-yl)acetic acid]	< 0.1
Cc1nc(CO)c(-c2ccc(OCCc3ccc(F)cc3)cc2)c(N2CCC(C)(C)CC2)c1[C@H](OC(C)(C)C)C(=O)O [Example 2, (S)-2-(tert-Butoxy)-2-(4-(4,4-dimethylpiperidin-1-yl)-5-(4-(4-fluorophenethoxy)phenyl)-6-(hydroxymethyl)-2-methylpyridin-3-yl)acetic acid]	< 0.1
COCc1nc(C)c([C@H](OC(C)(C)C)C(=O)O)c(N2CCC(C)(C)CC2)c1-c1ccc(OCCc2ccc(F)cc2)cc1 [Example 3, (S)-2-(tert-Butoxy)-2-(4-(4,4-dimethylpiperidin-1-yl)-5-(4-(4-fluorophenethoxy)phenyl)-6-(methoxymethyl)-2-methylpyridin-3-yl)acetic acid]	< 0.1
Cc1nc(C(F)F)c(-c2ccc(OCCc3ccc(F)cc3)cc2)c(N2CCC(C)(C)CC2)c1[C@H](OC(C)(C)C)C(=O)O [Example 4, (S)-2-(tert-Butoxy)-2-(6-(difluoromethyl)-4-(4,4-dimethylpiperidin-1-yl)-5-(4-(4-fluorophenethoxy)phenyl)-2-methylpyridin-3-yl)acetic acid]	< 0.1
Cc1nc(CF)c(-c2ccc(OCCc3ccc(F)cc3)cc2)c(N2CCC(C)(C)CC2)c1[C@H](OC(C)(C)C)C(=O)O [Example 5, (S)-2-(tert-Butoxy)-2-(4-(4,4-dimethylpiperidin-1-yl)-6-(fluoromethyl)-5-(4-(4-fluorophenethoxy)phenyl)-2-methylpyridin-3-yl)acetic acid]	< 0.1
Cc1nc(COc2ccc(Cl)cc2)c(-c2ccc(OCCc3ccc(F)cc3)cc2)c(N2CCC(C)(C)CC2)c1[C@H](OC(C)(C)C)C(=O)O [Example 6, (S)-2-(tert-butoxy)-2-(6-((4-chlorophenoxy)methyl)-4-(4,4-dimethylpiperidin-1-yl)-5-(4-(4-fluorophenethoxy)phenyl)-2-methylpyridin-3-yl)acetic acid]	< 0.1
Cc1nc(COCC2COC2)c(-c2ccc(OCCc3ccc(F)cc3)cc2)c(N2CCC(C)(C)CC2)c1[C@H](OC(C)(C)C)C(=O)O [Example 7, (S)-2-(tert-Butoxy)-2-(4-(4,4-dimethylpiperidin-1-yl)-5-(4-(4-fluorophenethoxy)phenyl)-2-methyl-6-((oxetan-3-ylmethoxy)methyl)pyridin-3-yl)acetic acid]	< 0.1
CCOCc1nc(C)c([C@H](OC(C)(C)C)C(=O)O)c(N2CCC(C)(C)CC2)c1-c1ccc(OCCc2ccc(F)cc2)cc1 [Example 8, (S)-2-(tert-Butoxy)-2-(4-(4,4-dimethylpiperidin-1-yl)-6-(ethoxymethyl)-5-(4-(4-fluorophenethoxy)phenyl)-2-methylpyridin-3-yl)acetic acid]	< 0.1
Cc1nc(COC(C)C)c(-c2ccc(OCCc3ccc(F)cc3)cc2)c(N2CCC(C)(C)CC2)c1[C@H](OC(C)(C)C)C(=O)O [Example 9, (S)-2-(tert-Butoxy)-2-(4-(4,4-dimethylpiperidin-1-yl)-5-(4-(4-fluorophenethoxy)phenyl)-6-(isopropoxymethyl)-2-methylpyridin-3-yl)acetic acid]	< 0.1
CCOCCOCc1nc(C)c([C@H](OC(C)(C)C)C(=O)O)c(N2CCC(C)(C)CC2)c1-c1ccc(OCCc2ccc(F)cc2)cc1 [Example 10, (S)-2-(tert-Butoxy)-2-(4-(4,4-dimethylpiperidin-1-yl)-6-((2-ethoxyethoxy)methyl)-5-(4-(4-fluorophenethoxy)phenyl)-2-methylpyridin-3-yl)acetic acid]	< 0.1
Cc1nc(COC2CCCC2)c(-c2ccc(OCCc3ccc(F)cc3)cc2)c(N2CCC(C)(C)CC2)c1[C@H](OC(C)(C)C)C(=O)O [Example 11, (S)-2-(tert-Butoxy)-2-(6-((cyclopentyloxy)methyl)-4-(4,4-dimethylpiperidin-1-yl)-5-(4-(4-fluorophenethoxy)phenyl)-2-methylpyridin-3-yl)acetic acid]	< 0.1
Cc1nc(COC2CCOCC2)c(-c2ccc(OCCc3ccc(F)cc3)cc2)c(N2CCC(C)(C)CC2)c1[C@H](OC(C)(C)C)C(=O)O [Example 12, (S)-2-(tert-Butoxy)-2-(4-(4,4-dimethylpiperidin-1-yl)-5-(4-(4-fluorophenethoxy)phenyl)-2-methyl-6-(((tetrahydro-2H-pyran-4-yl)oxy)methyl)pyridin-3-yl)acetic acid]	< 0.1
Cc1nc(COCC2CCCC2)c(-c2ccc(OCCc3ccc(F)cc3)cc2)c(N2CCC(C)(C)CC2)c1[C@H](OC(C)(C)C)C(=O)O [Example 13, (S)-2-(tert-Butoxy)-2-(6-((cyclopentylmethoxy)methyl)-4-(4,4-dimethylpiperidin-1-yl)-5-(4-(4-fluorophenethoxy)phenyl)-2-methylpyridin-3-yl)acetic acid]	< 0.1
Cc1nc(COCc2ncco2)c(-c2ccc(OCCc3ccc(F)cc3)cc2)c(N2CCC(C)(C)CC2)c1[C@H](OC(C)(C)C)C(=O)O [Example 14, (S)-2-(tert-Butoxy)-2-(4-(4,4-dimethylpiperidin-1-yl)-5-(4-(4-fluorophenethoxy)phenyl)-2-methyl-6-((oxazol-2-ylmethoxy)methyl)pyridin-3-yl)acetic acid]	< 0.1
Cc1nc(COc2cccc(Cl)c2)c(-c2ccc(OCCc3ccc(F)cc3)cc2)c(N2CCC(C)(C)CC2)c1[C@H](OC(C)(C)C)C(=O)O [Example 15, (S)-2-(tert-Butoxy)-2-(6-((3-chlorophenoxy)methyl)-4-(4,4-dimethylpiperidin-1-yl)-5-(4-(4-fluorophenethoxy)phenyl)-2-methylpyridin-3-yl)acetic acid]	< 0.1
Cc1nc(COCc2cccc(Cl)c2)c(-c2ccc(OCCc3ccc(F)cc3)cc2)c(N2CCC(C)(C)CC2)c1[C@H](OC(C)(C)C)C(=O)O [Example 16, (S)-2-(tert-Butoxy)-2-(6-(((3-chlorobenzyl)oxy)methyl)-4-(4,4-dimethylpiperidin-1-yl)-5-(4-(4-fluorophenethoxy)phenyl)-2-methylpyridin-3-yl)acetic acid]	< 0.1
CSCc1nc(C)c([C@H](OC(C)(C)C)C(=O)O)c(N2CCC(C)(C)CC2)c1-c1ccc(OCCc2ccc(F)cc2)cc1 [Example 17, (S)-2-(tert-Butoxy)-2-(4-(4,4-dimethylpiperidin-1-yl)-5-(4-(4-fluorophenethoxy)phenyl)-2-methyl-6-((methylthio)methyl)pyridin-3-yl)acetic acid]	< 0.1
Cc1nc(CS(C)(=O)=O)c(-c2ccc(OCCc3ccc(F)cc3)cc2)c(N2CCC(C)(C)CC2)c1[C@H](OC(C)(C)C)C(=O)O [Example 18, (S)-2-(tert-Butoxy)-2-(4-(4,4-dimethylpiperidin-1-yl)-5-(4-(4-fluorophenethoxy)phenyl)-2-methyl-6-((methylsulfonyl)methyl)pyridin-3-yl)acetic acid]	< 0.1

Same assay, conditions: Human immunodeficiency virus 1, MT2, 120 h, read-out: EC50 μM

SMILES	EC50 [µM]
Cc1nc(CO)c([C@H](OC(C)(C)C)C(=O)O)c(N2CCC(C)(C)CC2)c1-c1ccc(OCCc2ccc(F)cc2)cc1 [Example 1, (S)-2-(tert-Butoxy)-2-(4-(4,4-dimethylpiperidin-1-yl)-5-(4-(4-fluorophenethoxy)phenyl)-2-(hydroxymethyl)-6-methylpyridin-3-yl)acetic acid]	0.003
Cc1nc(COc2ccc(Cl)cc2)c(-c2ccc(OCCc3ccc(F)cc3)cc2)c(N2CCC(C)(C)CC2)c1[C@H](OC(C)(C)C)C(=O)O [Example 6, (S)-2-(tert-butoxy)-2-(6-((4-chlorophenoxy)methyl)-4-(4,4-dimethylpiperidin-1-yl)-5-(4-(4-fluorophenethoxy)phenyl)-2-methylpyridin-3-yl)acetic acid]	0.02
Cc1nc(COc2cccc(Cl)c2)c(-c2ccc(OCCc3ccc(F)cc3)cc2)c(N2CCC(C)(C)CC2)c1[C@H](OC(C)(C)C)C(=O)O [Example 15, (S)-2-(tert-Butoxy)-2-(6-((3-chlorophenoxy)methyl)-4-(4,4-dimethylpiperidin-1-yl)-5-(4-(4-fluorophenethoxy)phenyl)-2-methylpyridin-3-yl)acetic acid]	0.051

Same assay, conditions: read-out: Activity; NL-RLuc virus in MT-2 cells, 5 days of incubation, luciferase readout

SMILES	EC50 [µM]
Cc1cc(F)ccc1CN1CCc2cc(-c3c(C(C)N(C)CC4CCOCC4)nc(C)c([C@H](OC(C)(C)C)C(=O)O)c3N3CCC(C)(C)CC3)ccc2C1 (single isomer, unassigned) [Example 151]	< 0.1
Cc1cc(F)ccc1CN1CCc2cc(-c3c(C(C)O)nc(C)c([C@H](OC(C)(C)C)C(=O)O)c3N3CCC(C)(C)CC3)ccc2C1 (single isomer, unassigned) [Example 153]	< 0.1
